This passage reports IC50 and EC50 results from patent publication US11753395B2 (Kinnate Biopharma Inc., priority 2021, dated 2023).

In one test the target is T1, MET (Homo sapiens, UniProt P08581).
T1 construct: purchased Carna Biosciences 08-151
The test is described as follows: MET Mobility Shift Assay. The conditions noted are these: biochemical assay IC50; 100 μM ATP, 60 minute kinase reaction. The essentials: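 IC50s come from inhibition of substrate-to-phosphopeptide conversion, read by electrophoretic mobility shift. Reaction: 100 μM ATP, 1.5 μM 5-FAM peptide, 0.625 nM MET, 10 mM MgCl2, 60 min, after a 30 min room-temperature enzyme pre-incubation, quenched with EDTA.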

Another test has as its target T2, MET D1228N (Homo sapiens, UniProt P08581, D1228N).
T2 construct: purchased Signalchem M52-12IG
The test is described as follows: MET D1228N Mobility Shift Assay. The conditions noted are these: biochemical assay IC50; 100 μM ATP, 60 minute kinase reaction. The essentials: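 Microfluidic electrophoresis quantified phosphorylated versus unphosphorylated 5-FAM-KKKKEEIYFFF peptide (1.5 μM) after a 60 min reaction with 100 μM ATP. MET D1228N (0.313 nM) in 50 mM HEPES, 10 mM MgCl2, 2 mM DTT was preincubated 30 min; IC50 fitted to conversion inhibition.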

The target of another test is T3, Ba/F3-TPR-MET cells (Homo sapiens, UniProt P08581).
T3 construct: fused on or other part: P12270 (Nucleoprotein TPR)
The test is described as follows: CellTiter-Glo Cell Viability Assay, Ba/F3-TPR-MET. It is filed as cell-based. The conditions noted are these: 72 hours. The essentials:
(§1)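 IC50 values come from curve-fitted luminescence. Viable-cell ATP was read by CellTiter-Glo 2.0 after a 72 h, 37 °C incubation of 3000 TPR-MET or D1228N-mutant Ba/F3 cells per well. Compounds were tested as a 9-point, 3-fold series with 0.1% DMSO final.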
(In general: ATP-based viability assays read luminescence as a measure of living cells.)

Test [1] concerns the target T4, Ba/F3-TPR-MET-D1228N cells (Homo sapiens, UniProt P08581, D1228N, cells depend on it).
T4 construct: fused on or other part: P12270 (Nucleoprotein TPR)
The test is described as follows: CellTiter-Glo Cell Viability Assay, Ba/F3-TPR-MET-D1228N. It is filed as cell-based. The conditions noted are these: 72 hours. The method in brief: as §1

T4 sequence (P08581 whole entry D1228N, the tested form may be a part): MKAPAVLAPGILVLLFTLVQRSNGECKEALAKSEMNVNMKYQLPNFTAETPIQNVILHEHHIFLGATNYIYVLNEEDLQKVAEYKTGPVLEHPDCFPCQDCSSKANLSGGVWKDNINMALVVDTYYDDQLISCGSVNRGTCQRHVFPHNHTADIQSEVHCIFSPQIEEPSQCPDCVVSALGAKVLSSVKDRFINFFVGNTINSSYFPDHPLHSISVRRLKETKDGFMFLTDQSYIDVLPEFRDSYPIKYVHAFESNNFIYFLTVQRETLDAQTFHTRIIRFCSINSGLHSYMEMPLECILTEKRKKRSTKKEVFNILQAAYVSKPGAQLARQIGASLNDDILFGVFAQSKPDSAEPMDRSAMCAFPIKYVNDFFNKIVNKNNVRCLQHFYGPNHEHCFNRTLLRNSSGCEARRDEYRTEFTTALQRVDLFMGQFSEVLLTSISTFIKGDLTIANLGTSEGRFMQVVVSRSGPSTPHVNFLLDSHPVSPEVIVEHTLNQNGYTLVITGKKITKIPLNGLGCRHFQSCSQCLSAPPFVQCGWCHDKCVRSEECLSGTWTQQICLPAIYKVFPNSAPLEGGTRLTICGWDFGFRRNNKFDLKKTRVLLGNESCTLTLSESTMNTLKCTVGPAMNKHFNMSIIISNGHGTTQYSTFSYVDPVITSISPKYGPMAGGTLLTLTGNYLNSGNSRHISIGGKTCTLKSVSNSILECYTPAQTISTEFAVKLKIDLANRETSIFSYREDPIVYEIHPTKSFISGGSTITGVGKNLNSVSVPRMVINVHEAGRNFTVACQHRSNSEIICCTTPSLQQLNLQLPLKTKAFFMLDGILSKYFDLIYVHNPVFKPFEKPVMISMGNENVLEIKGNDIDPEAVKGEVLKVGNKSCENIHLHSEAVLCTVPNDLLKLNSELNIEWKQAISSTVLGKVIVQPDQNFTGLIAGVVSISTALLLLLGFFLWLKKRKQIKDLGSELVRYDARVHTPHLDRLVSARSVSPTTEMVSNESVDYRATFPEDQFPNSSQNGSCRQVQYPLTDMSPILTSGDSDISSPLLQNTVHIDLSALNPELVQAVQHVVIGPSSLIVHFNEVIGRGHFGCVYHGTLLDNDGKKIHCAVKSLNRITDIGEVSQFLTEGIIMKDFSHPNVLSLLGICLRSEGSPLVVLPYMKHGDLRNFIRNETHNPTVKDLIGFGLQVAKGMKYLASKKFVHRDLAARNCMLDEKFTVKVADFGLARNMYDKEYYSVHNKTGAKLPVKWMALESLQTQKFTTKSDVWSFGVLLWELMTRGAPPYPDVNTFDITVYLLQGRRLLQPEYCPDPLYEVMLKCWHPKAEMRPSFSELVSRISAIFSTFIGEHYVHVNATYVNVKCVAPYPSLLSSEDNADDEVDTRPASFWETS
T3 sequence (P08581 whole entry, change not shown, the tested form may be a part): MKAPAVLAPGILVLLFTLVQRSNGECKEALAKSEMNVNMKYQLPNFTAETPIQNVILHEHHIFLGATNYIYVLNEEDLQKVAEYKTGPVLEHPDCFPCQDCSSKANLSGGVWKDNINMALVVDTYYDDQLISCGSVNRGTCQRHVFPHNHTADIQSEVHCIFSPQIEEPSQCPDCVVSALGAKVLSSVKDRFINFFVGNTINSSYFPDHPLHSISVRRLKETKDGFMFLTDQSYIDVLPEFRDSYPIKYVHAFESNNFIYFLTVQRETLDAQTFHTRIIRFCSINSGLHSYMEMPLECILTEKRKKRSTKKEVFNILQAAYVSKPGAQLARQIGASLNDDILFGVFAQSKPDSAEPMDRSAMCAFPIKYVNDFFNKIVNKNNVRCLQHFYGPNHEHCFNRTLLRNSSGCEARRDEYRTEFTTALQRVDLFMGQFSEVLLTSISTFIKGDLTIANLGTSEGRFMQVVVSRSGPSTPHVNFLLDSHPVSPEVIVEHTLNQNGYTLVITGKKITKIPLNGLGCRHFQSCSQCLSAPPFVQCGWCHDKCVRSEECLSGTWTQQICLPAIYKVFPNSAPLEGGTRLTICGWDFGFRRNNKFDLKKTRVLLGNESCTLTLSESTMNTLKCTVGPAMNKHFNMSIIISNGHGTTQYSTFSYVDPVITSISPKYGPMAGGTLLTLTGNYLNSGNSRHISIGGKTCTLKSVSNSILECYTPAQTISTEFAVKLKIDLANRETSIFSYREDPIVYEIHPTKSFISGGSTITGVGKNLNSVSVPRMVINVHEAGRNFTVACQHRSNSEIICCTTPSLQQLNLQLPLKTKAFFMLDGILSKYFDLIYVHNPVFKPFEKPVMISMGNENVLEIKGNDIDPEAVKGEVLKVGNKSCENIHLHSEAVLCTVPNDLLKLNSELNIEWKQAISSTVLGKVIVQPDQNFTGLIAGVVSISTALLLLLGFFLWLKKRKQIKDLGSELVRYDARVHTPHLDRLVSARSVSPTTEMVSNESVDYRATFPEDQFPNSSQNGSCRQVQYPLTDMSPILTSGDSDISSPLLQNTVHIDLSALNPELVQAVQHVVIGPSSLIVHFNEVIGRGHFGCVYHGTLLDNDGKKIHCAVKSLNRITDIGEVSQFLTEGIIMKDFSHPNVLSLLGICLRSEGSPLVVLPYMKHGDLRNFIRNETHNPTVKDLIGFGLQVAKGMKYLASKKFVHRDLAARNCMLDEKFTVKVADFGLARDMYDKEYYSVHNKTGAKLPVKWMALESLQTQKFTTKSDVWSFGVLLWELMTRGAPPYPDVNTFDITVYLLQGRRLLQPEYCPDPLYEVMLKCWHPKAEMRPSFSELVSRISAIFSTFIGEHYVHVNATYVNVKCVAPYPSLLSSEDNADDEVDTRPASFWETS
T2 sequence (P08581 25-1390 D1228N): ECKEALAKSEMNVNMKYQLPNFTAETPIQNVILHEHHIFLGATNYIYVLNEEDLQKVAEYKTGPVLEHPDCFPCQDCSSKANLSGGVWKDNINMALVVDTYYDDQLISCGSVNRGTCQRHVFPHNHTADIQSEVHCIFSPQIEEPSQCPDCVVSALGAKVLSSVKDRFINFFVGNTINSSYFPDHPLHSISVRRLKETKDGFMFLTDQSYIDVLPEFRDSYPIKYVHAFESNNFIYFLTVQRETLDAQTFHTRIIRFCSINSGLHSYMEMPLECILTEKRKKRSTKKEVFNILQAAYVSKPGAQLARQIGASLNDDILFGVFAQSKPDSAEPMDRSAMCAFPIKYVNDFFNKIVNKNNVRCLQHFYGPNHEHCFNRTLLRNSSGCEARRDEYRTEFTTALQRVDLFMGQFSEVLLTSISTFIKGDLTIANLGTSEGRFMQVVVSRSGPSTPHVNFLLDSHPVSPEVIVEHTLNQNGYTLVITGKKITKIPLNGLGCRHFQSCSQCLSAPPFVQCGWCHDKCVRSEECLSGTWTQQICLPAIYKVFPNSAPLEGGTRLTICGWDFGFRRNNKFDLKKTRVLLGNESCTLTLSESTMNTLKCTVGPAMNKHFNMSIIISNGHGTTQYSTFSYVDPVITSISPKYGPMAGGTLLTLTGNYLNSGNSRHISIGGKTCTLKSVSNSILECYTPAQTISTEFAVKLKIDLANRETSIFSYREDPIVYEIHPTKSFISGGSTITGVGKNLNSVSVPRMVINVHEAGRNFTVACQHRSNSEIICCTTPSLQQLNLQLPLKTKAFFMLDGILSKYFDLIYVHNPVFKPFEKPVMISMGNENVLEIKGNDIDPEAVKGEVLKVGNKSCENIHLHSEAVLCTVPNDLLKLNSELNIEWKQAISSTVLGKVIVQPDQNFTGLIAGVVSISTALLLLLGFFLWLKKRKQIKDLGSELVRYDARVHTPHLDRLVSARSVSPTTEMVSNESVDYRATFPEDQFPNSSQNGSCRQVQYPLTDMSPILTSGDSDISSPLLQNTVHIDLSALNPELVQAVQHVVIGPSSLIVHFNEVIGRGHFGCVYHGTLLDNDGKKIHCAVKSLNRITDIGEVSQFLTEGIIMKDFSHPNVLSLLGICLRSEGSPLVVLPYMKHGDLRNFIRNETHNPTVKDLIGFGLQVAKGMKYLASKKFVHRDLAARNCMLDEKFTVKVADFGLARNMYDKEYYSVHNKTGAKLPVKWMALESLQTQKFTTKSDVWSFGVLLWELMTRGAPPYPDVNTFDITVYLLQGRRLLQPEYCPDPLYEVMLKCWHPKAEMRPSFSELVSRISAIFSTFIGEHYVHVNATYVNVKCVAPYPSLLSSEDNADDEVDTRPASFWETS

On to `COc1cc2nccc(Oc3c(F)cc(NC(=O)c4cnccc4OC)cc3F)c2cc1OC` [Example 34, N-(4-((6,7-dimethoxyquinolin-4-yl)oxy)-3,5-difluorophenyl)-4-methoxypyridine-3-carboxamide], for which the IC50 on MET and on MET D1228N was at most 100 nM in each case. The EC50 was 100 to 1000 nM on Ba/F3-TPR-MET cells and at most 100 nM in test [1].
With `CNCCOc1cc2nccc(Oc3cc(F)c(NC(=O)c4c(OC)ccnc4F)cc3F)c2cc1OC` [Example 25, N-[2,5-difluoro-4-({6-methoxy-7-[2-(methylamino)ethoxy]quinolin-4-yl}oxy)phenyl]-2-fluoro-4-methoxypyridine-3-carboxamide], the IC50 on MET and on MET D1228N was at most 100 nM each time. Also, the EC50 (on Ba/F3-TPR-MET cells; in test [1]) was 100 to 1000 nM throughout.
As to `CCCOc1ccncc1C(=O)Nc1cc(F)c(Oc2ccnc3cc(OCCNC)c(OC)cc23)cc1F` [Example 52, N-(2,5-difluoro-4-((6-methoxy-7-(2-(methylamino)ethoxy)quinolin-4-yl)oxy)phenyl)-4-propoxypyridine-3-carboxamide], the IC50 on MET and on MET D1228N was at most 100 nM each time. The EC50 (at Ba/F3-TPR-MET cells; in test [1]) was 100 to 1000 nM each time.
For `COc1cc2nccc(Oc3c(F)cc(NC(=O)c4cnccc4OC4CC4)cc3F)c2cc1OCCO` [Example 107, 4-cyclopropoxy-N-(3,5-difluoro-4-((6-(2-hydroxyethoxy)-7-methoxyquinolin-4-yl)oxy)phenyl)pyridine-3-carboxamide], the IC50 at MET and at MET D1228N was at most 100 nM in each case. Moreover, the EC50 (at Ba/F3-TPR-MET cells; in test [1]) was at most 100 nM each time.
Turning to `CCOc1ccncc1C(=O)Nc1cc(F)c(Oc2ccnc3cc(OCCCNC)c(OC)cc23)c(F)c1` [Example 21, N-(3,5-difluoro-4-((6-methoxy-7-(3-(methylamino)propoxy)quinolin-4-yl)oxy)phenyl)-4-ethoxypyridine-3-carboxamide], the IC50 on MET and at MET D1228N was at most 100 nM throughout. Besides, the EC50 (at Ba/F3-TPR-MET cells; in test [1]) was 100 to 1000 nM throughout.
Turning to `CNCCOc1cc2nccc(Oc3c(F)cc(NC(=O)c4cnccc4OC[C@@H](C)O)cc3F)c2cc1OC` [Example 65, (R)-N-(3,5-difluoro-4-((6-methoxy-7-(2-(methylamino)ethoxy)quinolin-4-yl)oxy)phenyl)-4-(2-hydroxypropoxy)pyridine-3-carboxamide], the IC50 at MET and on MET D1228N was at most 100 nM each time. In addition, the EC50 is 100 to 1000 nM at Ba/F3-TPR-MET cells and at most 100 nM in test [1].
In the case of `CCOc1ccncc1C(=O)Nc1cc(F)c(Oc2ccnc3cc(OCCCN(C)C)c(OC)cc23)cc1F` [Example 23, N-(4-((7-(3-(dimethylamino)propoxy)-6-methoxyquinolin-4-yl)oxy)-2,5-difluorophenyl)-4-ethoxypyridine-3-carboxamide], the IC50 on MET and on MET D1228N was at most 100 nM each time. The EC50 on Ba/F3-TPR-MET cells is 100 to 1000 nM; in test [1] it was at most 100 nM.
Turning to `COCCOc1cnc2c(Oc3c(F)cc(NC(=O)c4cnccc4OC)cc3F)ccnc2c1` [Example 139, N-(3,5-difluoro-4-((7-(2-methoxyethoxy)-1,5-naphthyridin-4-yl)oxy)phenyl)-4-methoxypyridine-3-carboxamide], the IC50 at MET and at MET D1228N was at most 100 nM each time. In addition, the EC50 (at Ba/F3-TPR-MET cells; in test [1]) was at most 100 nM each time.
Consider `CNCCOc1cc2nccc(Oc3c(F)cc(NC(=O)c4cnccc4OC(F)F)cc3F)c2cc1OC` [Example 47, N-(3,5-difluoro-4-((6-methoxy-7-(2-(methylamino)ethoxy)quinolin-4-yl)oxy)phenyl)-4-(difluoromethoxy)pyridine-3-carboxamide], for which the IC50 at MET and on MET D1228N was at most 100 nM throughout. The EC50 (at Ba/F3-TPR-MET cells; in test [1]) was 100 to 1000 nM throughout.
As to `CCCOc1ccncc1C(=O)Nc1cc(F)c(Oc2ccnc3cc(OCCNC)c(OC)cc23)c(F)c1` [Example 56, N-[3,5-difluoro-4-({6-methoxy-7-[2-(methylamino)ethoxy]quinolin-4-yl}oxy)phenyl]-4-propoxypyridine-3-carboxamide], the IC50 at MET and on MET D1228N was at most 100 nM throughout. The EC50 (on Ba/F3-TPR-MET cells; in test [1]) was at most 100 nM throughout.
Consider `CNCCOc1cc2nccc(Oc3cc(F)c(NC(=O)c4cnccc4OC)cc3F)c2cc1OC` [Example 24, N-[2,5-difluoro-4-({6-methoxy-7-[2-(methylamino)ethoxy]quinolin-4-yl}oxy)phenyl]-4-methoxypyridine-3-carboxamide], for which the IC50 at MET and on MET D1228N was at most 100 nM in each case. Moreover, the figures for the EC50 (on Ba/F3-TPR-MET cells; in test [1]) were 100 to 1000 nM and at most 100 nM, respectively.
As for `COc1ccncc1C(=O)Nc1cc(F)c(Oc2ccnc3cc(OC)c(OC4(CO)CC4)nc23)c(F)c1` [Example 147, N-(3,5-difluoro-4-((6-(1-(hydroxymethyl)cyclopropoxy)-7-methoxy-1,5-naphthyridin-4-yl)oxy)phenyl)-4-methoxynicotinamide], the IC50 on MET and on MET D1228N was at most 100 nM each time. The EC50 (on Ba/F3-TPR-MET cells; in test [1]) was at most 100 nM in each case.
On to `COc1cc2c(Oc3c(F)cc(NC(=O)c4cnccc4OC4CC4)cc3F)ccnc2cc1OCCCN1CCOCC1` [Example 53, 4-cyclopropoxy-N-[3,5-difluoro-4-({6-methoxy-7-[3-(morpholin-4-yl)propoxy]quinolin-4-yl}oxy)phenyl]pyridine-3-carboxamide], for which the IC50 on MET and at MET D1228N was at most 100 nM throughout. In addition, the EC50 (on Ba/F3-TPR-MET cells; in test [1]) was at most 100 nM throughout.
Regarding `CCCCOc1ccncc1C(=O)Nc1cc(F)c(Oc2ccnc3cc(OCCNC)c(OC)cc23)c(F)c1` [Example 69, 4-butoxy-N-[3,5-difluoro-4-({6-methoxy-7-[2-(methylamino)ethoxy]quinolin-4-yl}oxy)phenyl]pyridine-3-carboxamide], the IC50 at MET and on MET D1228N was at most 100 nM in each case. Further, the EC50 (on Ba/F3-TPR-MET cells; in test [1]) was at most 100 nM throughout.
With `COc1ccc2c(Oc3c(F)cc(NC(=O)c4cnccc4OC)cc3F)ccnc2c1` [Example 35, N-{3,5-difluoro-4-[(7-methoxyquinolin-4-yl)oxy]phenyl}-4-methoxypyridine-3-carboxamide], the IC50 on MET and on MET D1228N was at most 100 nM in each case. Further, the EC50 (at Ba/F3-TPR-MET cells; in test [1]) was 100 to 1000 nM each time.
For the compound `CNCCOc1cc2nccc(Oc3c(F)cc(NC(=O)c4cccnc4OC4CC4)cc3F)c2cc1OC` [Example 78, 2-cyclopropoxy-N-[3,5-difluoro-4-({6-methoxy-7-[2-(methylamino)ethoxy]quinolin-4-yl}oxy)phenyl]pyridine-3-carboxamide], the IC50 at MET and on MET D1228N was at most 100 nM each time. Also, the EC50 (on Ba/F3-TPR-MET cells; in test [1]) was 100 to 1000 nM each time.
Take `NC1(COc2ccc3c(Oc4c(F)cc(NC(=O)c5cnccc5OC5CC5)cc4F)ccnc3c2)CC1` [Example 88]: the IC50 on MET and on MET D1228N was at most 100 nM each time. The EC50 at Ba/F3-TPR-MET cells was 100 to 1000 nM; in test [1] it was at most 100 nM.

What is called IC50 is the concentration needed to halve the response being measured. The term EC50 denotes the concentration at which the effect is half-maximal. A lower EC50 goes with greater potency.
